This passage reports relative viability results from the supplement of paper PMC10307832.

What all share (test): relative viability (nuclei count vs DMSO), 5 days (fraction); higher = more cells survive
Compound in assay [1]: CC1(C)CCC(CN2CCN(c3ccc(C(=O)NS(=O)(=O)c4ccc(NCC5CCOCC5)c([N+](=O)[O-])c4)c(Oc4cnc5[nH]ccc5c4)c3)CC2)=C(c2ccc(Cl)cc2)C1 [Venetoclax] + NC(=O)Nc1cc(-c2cccc(F)c2)sc1C(=O)N[C@H]1CCCNC1 [AZD7762] (partner 0.2 µM)
An outline of the steps: (§1)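 Lung cancer cell lines in 1536-well plates got either a single drug or a fixed anchor-drug dose together with five library-drug doses (not always all listed) in √10 steps, by pin tool, on the day after seeding. Nuclei were counted after 5 days, and relative viability is the treated-to-vehicle ratio of nuclei counts. Values are medians of duplicate plates.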

Compound in assay [2]: CC1(C)CCC(CN2CCN(c3ccc(C(=O)NS(=O)(=O)c4ccc(NCC5CCOCC5)c([N+](=O)[O-])c4)c(Oc4cnc5[nH]ccc5c4)c3)CC2)=C(c2ccc(Cl)cc2)C1 [Venetoclax] + O=C(c1cc(Cc2n[nH]c(=O)c3ccccc23)ccc1F)N1CCN(C(=O)C2CC2)CC1 [Olaparib] (partner 8 µM)
The method in brief: as §1

Compound in assay [3]: Cn1cnc2c(F)c(Nc3ccc(Br)cc3Cl)c(C(=O)NOCCO)cc21 [Selumetinib] + COc1cc2c(Oc3ccc(NC(=O)C4(C(=O)Nc5ccc(F)cc5)CC4)cc3F)ccnc2cc1OCCCN1CCOCC1 [Foretinib] (partner 0.25 µM)
An outline of the steps: as §1

Compound in assay [4]: Cn1cnc2c(F)c(Nc3ccc(Br)cc3Cl)c(C(=O)NOCCO)cc21 [Selumetinib] + C[C@@H](Oc1cc(-c2cnn(C3CCNCC3)c2)cnc1N)c1c(Cl)ccc(F)c1Cl [Crizotinib] (partner 1 µM)
The method in brief: as §1

PC-3 [JPC-3]: the relative viability in assay [1] (first compound 0.01 µM) worked out at 0.787; in assay [1] (first compound 0.03162 µM), 0.828; in assay [1] (first compound 0.1 µM), 0.89; in assay [1] (first compound 0.3162 µM) it was 0.836; in assay [1] (first compound 1 µM) it was 0.744; in assay [2] (first compound 0.01 µM), 1.15. In addition, the relative viability in assay [2] (first compound 0.03162 µM) came out at 1.19; in assay [2] (first compound 0.1 µM), 1.21; in assay [2] (first compound 0.3162 µM), 1.15; in assay [2] (first compound 1 µM), 1.04; in assay [3] (first compound 0.02 µM), 0.944; in assay [3] (first compound 0.06325 µM), 0.92. Besides, the relative viability in assay [3] (first compound 0.2 µM) is 0.922; in assay [3] (first compound 0.6325 µM), 0.713; in assay [4] (first compound 0.02 µM) it was 0.98; in assay [4] (first compound 0.06325 µM), 0.904; in assay [4] (first compound 0.2 µM), 0.905; in assay [4] (first compound 0.6325 µM) it was 0.774.
Turning to PC-14, the relative viability in assay [1] (first compound 0.01 µM) came out at 0.346; in assay [1] (first compound 0.03162 µM), 0.361; in assay [1] (first compound 0.1 µM), 0.315; in assay [1] (first compound 0.3162 µM) it was 0.413; in assay [1] (first compound 1 µM) it was 0.301; in assay [2] (first compound 0.01 µM) it was 0.256. The relative viability worked out at 0.297 in assay [2] (first compound 0.03162 µM); 0.245 in assay [2] (first compound 0.1 µM); 0.302 in assay [2] (first compound 0.3162 µM); 0.226 in assay [2] (first compound 1 µM); 0.97 in assay [3] (first compound 0.02 µM); 0.886 in assay [3] (first compound 0.06325 µM). Besides, the relative viability in assay [3] (first compound 0.2 µM) amounted to 0.819; in assay [3] (first compound 0.6325 µM), 0.881; in assay [4] (first compound 0.02 µM), 0.867; in assay [4] (first compound 0.06325 µM) it was 0.814; in assay [4] (first compound 0.2 µM), 0.961; in assay [4] (first compound 0.6325 µM), 0.949.
Turning to RERF-LC-KJ, the relative viability in assay [1] (first compound 0.01 µM) came out at 0.801; in assay [1] (first compound 0.03162 µM), 1.09; in assay [1] (first compound 0.1 µM) it was 1.07; in assay [1] (first compound 0.3162 µM), 1.03; in assay [1] (first compound 1 µM) it was 0.945; in assay [2] (first compound 0.01 µM) it was 0.883. In addition, the relative viability in assay [2] (first compound 0.03162 µM) was found to be 0.839; in assay [2] (first compound 0.1 µM), 0.934; in assay [2] (first compound 0.3162 µM), 0.935; in assay [2] (first compound 1 µM) it was 0.847; in assay [3] (first compound 0.02 µM), 0.87; in assay [3] (first compound 0.06325 µM), 0.901. In addition, the relative viability stood at 0.853 in assay [3] (first compound 0.2 µM); 0.819 in assay [3] (first compound 0.6325 µM); 0.844 in assay [4] (first compound 0.02 µM); 0.842 in assay [4] (first compound 0.06325 µM); 0.788 in assay [4] (first compound 0.2 µM); 0.77 in assay [4] (first compound 0.6325 µM).
